The values that follow come from BindingDB's records for patent US20250059218 (The Leland Stanford Junior University, 2025).

Structures are written as SMILES. Where only a bound is given, the exact number is not on record here.

This assay concerns the target T1, Ectonucleotide pyrophosphatase/phosphodiesterase family member 1 (Mus musculus, UniProt P06802).
T1 sequence (P06802 whole entry): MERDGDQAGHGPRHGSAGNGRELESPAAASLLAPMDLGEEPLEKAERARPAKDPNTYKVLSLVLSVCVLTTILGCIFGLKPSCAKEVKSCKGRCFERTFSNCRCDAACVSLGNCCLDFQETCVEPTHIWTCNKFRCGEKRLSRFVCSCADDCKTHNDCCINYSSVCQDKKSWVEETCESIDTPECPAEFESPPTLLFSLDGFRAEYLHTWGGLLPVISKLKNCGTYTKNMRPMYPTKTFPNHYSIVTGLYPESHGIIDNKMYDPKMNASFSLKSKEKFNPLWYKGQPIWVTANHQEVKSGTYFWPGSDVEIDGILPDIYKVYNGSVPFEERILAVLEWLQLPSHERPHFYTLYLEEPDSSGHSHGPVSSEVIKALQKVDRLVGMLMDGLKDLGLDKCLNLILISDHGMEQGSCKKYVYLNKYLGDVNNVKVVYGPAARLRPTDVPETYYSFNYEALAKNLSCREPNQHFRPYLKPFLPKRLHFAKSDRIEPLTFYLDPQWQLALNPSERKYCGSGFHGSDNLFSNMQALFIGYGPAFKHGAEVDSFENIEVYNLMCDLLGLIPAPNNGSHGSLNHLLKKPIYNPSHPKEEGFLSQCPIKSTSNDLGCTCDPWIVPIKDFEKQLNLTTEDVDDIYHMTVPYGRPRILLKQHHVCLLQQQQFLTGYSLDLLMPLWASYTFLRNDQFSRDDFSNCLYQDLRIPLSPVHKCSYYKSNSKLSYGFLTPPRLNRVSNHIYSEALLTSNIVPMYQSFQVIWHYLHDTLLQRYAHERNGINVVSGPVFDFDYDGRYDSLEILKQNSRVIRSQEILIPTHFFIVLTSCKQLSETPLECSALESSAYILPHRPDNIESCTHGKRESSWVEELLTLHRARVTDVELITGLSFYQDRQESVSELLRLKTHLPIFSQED
In words: ENPP1 Enzyme Activity Assay. The method, then:
The AMP degradation product was converted to ATP, which was detected using luciferase. To achieve this, an enzyme mixture of polyphosphate:AMP phosphotransferase (PAP) and myokinase was prepared according to Goueli et al. in EP2771480. Briefly, PAP was diluted to 2 mg/mL in buffer containing 50 mM Tris pH 7.5, 0.1% NP-40. Myokinase was diluted to 2 KU/mL in buffer containing 3.2 mM ammonium sulfate pH 6.0, 1 mM EDTA, and 4 mM polyphosphate. The heat-inactivated ENPP1 reaction was incubated with PAP (0.01 μg/μL) and myokinase (0.0075 U/μL) in buffer containing 40 mM Tris pH 7.5, 0.05 mg/mL Prionex, 5 mM MgCl2, 20 μM polyphosphate, and 0.15 g/L phenol red (for ease of pipetting) for 3 hours (total reaction volume=20 μL). CellTiterGlo (20 uL) was added to the reaction according to manufacturer's protocol and luminescence was measured.

`COc1cc2ncnc(Nc3ccc(P(=O)(O)O)cc3)c2cc1OC` [US20250059218, Compound 2] gave an IC50 of over 100 nM.

The compound `COc1cc2ncnc(NCc3ccc(P(=O)(O)O)cc3)c2cc1OC` [US20250059218, Compound 4] displayed an IC50 of under 50 nM.

Compound `COc1cc2ncnc(NCc3ccc(CP(=O)(O)O)cc3)c2cc1OC` [US20250059218, Compound 5] gave an IC50 of under 50 nM.

Compound `COc1cccc2c(NCc3ccc(P(=O)(O)O)cc3)ncnc12` [US20250059218, Compound 36] returned a half-maximal inhibitory concentration (IC50) of under 50 nM.

`COc1cc2ncc(C#N)c(N3CCC(CCP(=O)(O)O)CC3)c2cc1OC` [US20250059218, Compound 42] yielded an IC50 of under 50 nM.

Regarding `COc1ccc2c(N3CCC(CCP(=O)(O)O)CC3)c(C#N)cnc2c1` [US20250059218, Compound 43], the IC50 was under 50 nM.

Compound `COc1cccc2c(N3CCC(CCP(=O)(O)O)CC3)c(C#N)cnc12` [US20250059218, Compound 45] gave an IC50 of under 50 nM.

Compound `COc1cc(OC)c2ncc(C#N)c(N3CCC(CCP(=O)(O)O)CC3)c2c1` [US20250059218, Compound 46] yielded an IC50 of over 100 nM.

On to `COc1ccc2c(N3CCC(COP(O)(O)=S)CC3)c(C#N)cnc2c1` [US20250059218, Compound 48], for which the IC50 was over 100 nM.

Regarding `COc1cccc2c(N3CCC(COP(O)(O)=S)CC3)c(C#N)cnc12` [US20250059218, Compound 50], the IC50 was over 100 nM.

Turning to `COc1cccc2c(NCc3ccc(P(=O)(O)O)cc3)c(C#N)cnc12` [US20250059218, Compound 52], the IC50 was under 50 nM.

`COc1cccc2c(NCc3ccc(P(=O)(O)O)cc3)nc(/C=C/c3cccnc3)nc12` [US20250059218, Compound 53] came in with an IC50 of under 50 nM.

`COc1cc2ncnc(NCc3ccc(C(=O)NO)cc3)c2cc1OC` [US20250059218, Compound 101] gave an IC50 of over 100 nM.

`COc1cccc2c(NCc3ccc(B(O)O)cc3)ncnc12` [US20250059218, Compound 102] displayed an IC50 of under 50 nM.

The compound `COc1ccc2c(NCc3ccc(B(O)O)cc3)ncnc2c1` [US20250059218, Compound 103] yielded an IC50 of over 100 nM.

The compound `COc1cccc2c(NCc3ccc(C(=O)NO)cc3)ncnc12` [US20250059218, Compound 104] yielded a concentration for half-maximal inhibition (IC50) of over 100 nM.

`COc1cc2nccc(N3CCC(CCP(=O)(O)O)CC3)c2cc1OC` [US20250059218, Compound 201] returned an IC50 of over 100 nM.

Compound `COc1cc2ncc(C#N)c(NCc3ccc(P(=O)(O)O)cc3)c2cc1OC` [US20250059218, Compound 203] gave an IC50 of under 50 nM.

`COc1ccc2c(NCc3ccc(P(=O)(O)O)cc3)c(C#N)cnc2c1` [US20250059218, Compound 204] had an IC50 of under 50 nM.

`COc1cc2ncc(N)c(N3CCC(CCP(=O)(O)O)CC3)c2cc1OC` [US20250059218, Compound 205] had an IC50 of under 50 nM.

In the case of `COc1cc2ncc(Cl)c(N3CCC(CCP(=O)(O)O)CC3)c2cc1OC` [US20250059218, Compound 207], the IC50 is over 100 nM.

With `COc1cc2ncc(F)c(N3CCC(CCP(=O)(O)O)CC3)c2cc1OC` [US20250059218, Compound 208], the IC50 is over 100 nM.

As for `COc1ccc2c(N3CCC(CCCP(=O)(O)O)CC3)c(C#N)cnc2c1` [US20250059218, Compound 209], the IC50 was under 50 nM.

Compound `COc1cccc2c(N3CCC(CCCP(=O)(O)O)CC3)c(C#N)cnc12` [US20250059218, Compound 210] gave an IC50 of under 50 nM.

In turn, `COc1cccc2c(NCc3ccc(CP(=O)(O)O)cc3)c(C#N)cnc12` [US20250059218, Compound 211] registered an IC50 of under 50 nM.

Turning to `COc1ccc2c(NCc3ccc(B(O)O)cc3)c(C#N)cnc2c1` [US20250059218, Compound 213], the IC50 was over 100 nM.

Take `COc1cccc2c(NCc3ccc(B(O)O)cc3)c(C#N)cnc12` [US20250059218, Compound 214]: the IC50 is over 100 nM.

The compound `COc1ccc2c(N3CCC(CCOP(O)(O)=S)CC3)c(C#N)cnc2c1` [US20250059218, Compound 215] came in with an IC50 of over 100 nM.

As to `COc1cccc2c(N3CCC(CCB(O)O)CC3)c(C#N)cnc12` [US20250059218, Compound 216], the IC50 is over 100 nM.

The compound `COc1ccc2c(N3CCC(CCB(O)O)CC3)c(C#N)cnc2c1` [US20250059218, Compound 217] came in with an IC50 of over 100 nM.

As to `COc1cc2ncc3ncn(Cc4ccc(CP(=O)(O)O)cc4)c3c2cc1OC` [US20250059218, Compound 218], the IC50 was over 100 nM.

In the case of `COc1ccc2c(NCc3ccc(C(=O)NO)cc3)c(C#N)cnc2c1` [US20250059218, Compound 219], the IC50 was over 100 nM.

With `COc1cccc2c(NCc3ccc(C(=O)NO)cc3)c(C#N)cnc12` [US20250059218, Compound 220], the IC50 is over 100 nM.
